# Measurements taken from ChEMBL document CHEMBL4190268, “Design, synthesis and biological studies of a library of NK1-Receptor Ligands Based on a 5-arylthiosubstituted 2-amino-4,6-diaryl-3-cyano-4H-pyran core: Switch from antagonist to agonist effect by chemical modification” (Eur J Med Chem, 2017).
# Biological target: T1, Substance-P receptor (Homo sapiens, UniProt P25103)
# Assay: Antagonist activity at His6-tagged NK1 receptor (unknown origin) expressed in CHO cells assessed as inhibition of substance-P-induced IP1 accumulation at 10^-5 M preincubated for 10 mins followed by substance-P addition measured after 30 mins by HTRF-FRET assay relative to control
# Type: functional, cell-based
# Conditions: not given
# T1 sequence (P25103 whole entry): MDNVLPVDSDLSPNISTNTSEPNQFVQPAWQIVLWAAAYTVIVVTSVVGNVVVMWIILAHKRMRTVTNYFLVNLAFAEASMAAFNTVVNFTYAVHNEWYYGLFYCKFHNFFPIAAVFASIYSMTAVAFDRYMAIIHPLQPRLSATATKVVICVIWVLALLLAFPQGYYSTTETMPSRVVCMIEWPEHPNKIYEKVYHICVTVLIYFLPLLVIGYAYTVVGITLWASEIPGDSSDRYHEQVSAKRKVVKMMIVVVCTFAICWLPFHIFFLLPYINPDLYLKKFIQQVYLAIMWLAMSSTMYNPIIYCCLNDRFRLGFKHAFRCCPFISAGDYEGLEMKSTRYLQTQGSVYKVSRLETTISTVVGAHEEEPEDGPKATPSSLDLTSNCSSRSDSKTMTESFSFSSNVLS
row,SMILES,inhibition [%]
1,Cc1ccc([S+]([O-])C2=C(c3ccccn3)OC(N)=C(C#N)C2c2ccccc2)cc1 (racemic),35
2,COc1ccc([C@@H]2C(C#N)=C(N)OC(c3ccccn3)=C2[S@@+]([O-])c2ccc(C)cc2)cc1,34.5
3,N#CC1=C(N)OC(c2ccccn2)=C([S+]([O-])c2ccc([N+](=O)[O-])cc2)C1c1ccc([N+](=O)[O-])cc1 (racemic),35.6
4,Cc1ccc([S+]([O-])C2=C(c3ccccn3)OC(N)=C(C#N)C2c2ccc([N+](=O)[O-])cc2)cc1 (racemic),30
5,N#CC1=C(N)OC(c2ccccn2)=C([S+]([O-])c2ccccc2)C1c1ccccc1 (racemic),32

# System: A549
# Assay: cells
# Conditions: Homo sapiens, A549, 48 h
row,SMILES,IC50 [µM]
1,CC(O)C(=O)O (stereo unspecified) [LACTIC ACID],26.6
2,COc1ccc([C@@H]2C(C#N)=C(N)OC(c3ccccn3)=C2[S@@+]([O-])c2ccc(C)cc2)cc1,156
3,N#CC1=C(N)OC(c2ccccn2)=C([S+]([O-])c2ccc([N+](=O)[O-])cc2)C1c1ccc([N+](=O)[O-])cc1 (racemic),536
4,COc1ccccc1CN[C@H]1C2CCN(CC2)[C@H]1C(c1ccccc1)c1ccccc1 [CP-96345],46.8

# System: A549
# Assay: Cytotoxicity against human A549 cells assessed as cell viability at 320 uM after 48 hrs by MTT assay relative to control
# Type: functional
# Conditions: A549, 48 h, read-out: Activity
row,SMILES,viability at 320 µM [%]
1,COc1ccc([C@@H]2C(C#N)=C(N)OC(c3ccccn3)=C2[S@@+]([O-])c2ccc(C)cc2)cc1,7

# System: MRC5
# Assay: cells
# Conditions: Homo sapiens, MRC5, 48 h
# Description: Cytotoxicity against human MRC5 cells after 48 hrs by MTT assay
row,SMILES,IC50 [µM]
1,CC(O)C(=O)O (stereo unspecified) [LACTIC ACID],23.9
2,COc1ccc([C@@H]2C(C#N)=C(N)OC(c3ccccn3)=C2[S@@+]([O-])c2ccc(C)cc2)cc1,430
3,N#CC1=C(N)OC(c2ccccn2)=C([S+]([O-])c2ccc([N+](=O)[O-])cc2)C1c1ccc([N+](=O)[O-])cc1 (racemic),825
4,COc1ccccc1CN[C@H]1C2CCN(CC2)[C@H]1C(c1ccccc1)c1ccccc1 [CP-96345],57.9

# Biological target: T1, Substance-P receptor
# Assay: Antagonist activity at His6-tagged NK1 receptor (unknown origin) expressed in CHO cells assessed as inhibition of substance-P-induced IP1 accumulation at 5 x 10^-5M preincubated for 10 mins followed by substance-P addition measured after 30 mins by HTRF-FRET assay relative to control
# Type: functional, cell-based
# Conditions: not given
row,SMILES,inhibition [%]
1,Cc1ccc([S@+]([O-])C2=C(c3ccccn3)OC(N)=C(C#N)[C@H]2c2ccc(F)cc2)cc1,21
2,Cc1ccc([S+]([O-])C2=C(c3ccco3)OC(N)=C(C#N)C2c2ccc(Cl)cc2)cc1 (racemic),12.5
3,Cc1ccc([S@@+]([O-])C2=C(c3ccccn3)OC(N)=C(C#N)[C@@H]2c2ccc(Cl)cc2)cc1,5.8
4,Cc1ccc(C2C(C#N)=C(N)OC(c3ccccn3)=C2[S+]([O-])c2ccc([N+](=O)[O-])cc2)cc1 (racemic),38.1
5,Cc1ccc([S+]([O-])C2=C(c3ccccn3)OC(N)=C(C#N)C2c2ccc(F)cc2)cc1 (racemic),2.51
6,Cc1ccc([S+]([O-])C2=C(c3ccccn3)OC(N)=C(C#N)C2c2ccccc2)cc1 (racemic),24.4
7,Cc1ccc(C2C(C#N)=C(N)OC(c3cc(C(F)(F)F)cc(C(F)(F)F)c3)=C2[S+]([O-])c2ccc(C)cc2)cc1 (racemic),11.5
8,COc1ccc([C@@H]2C(C#N)=C(N)OC(c3ccccn3)=C2[S@@+]([O-])c2ccc(C)cc2)cc1,43.9
9,N#CC1=C(N)OC(c2ccccn2)=C([S+]([O-])c2ccc([N+](=O)[O-])cc2)C1c1ccc(Cl)cc1 (racemic),32.2
10,N#CC1=C(N)OC(c2ccccn2)=C([S+]([O-])c2ccc([N+](=O)[O-])cc2)C1c1ccc([N+](=O)[O-])cc1 (racemic),56.1
11,Cc1ccc([S@@+]([O-])C2=C(c3ccccn3)OC(N)=C(C#N)[C@@H]2c2ccc(F)cc2)cc1,11.2
12,Cc1ccc([S+]([O-])C2=C(c3ccccn3)OC(N)=C(C#N)C2c2ccc([N+](=O)[O-])cc2)cc1 (racemic),28.9
13,N#CC1=C(N)OC(c2ccccn2)=C([S+]([O-])c2ccc([N+](=O)[O-])cc2)C1c1ccccc1 (racemic),56.6
14,COc1ccc(C2C(C#N)=C(N)OC(c3ccccn3)=C2[S+]([O-])c2ccccc2)cc1 (racemic),11.1
15,N#CC1=C(N)OC(c2ccccn2)=C([S+]([O-])c2ccccc2)C1c1ccccc1 (racemic),19.8

# Biological target: T1, Substance-P receptor
# Assay: not given
# Conditions: CHO, 10^-7 M
row,SMILES,inhibition [%]
1,COc1ccccc1CN[C@H]1C2CCN(CC2)[C@H]1C(c1ccccc1)c1ccccc1 [CP-96345],85.3

# System: not listed separately
# Assay: Cytotoxicity against human MRC5 cells assessed as cell viability at 320 uM after 48 hrs by MTT assay relative to control
# Type: cell-based
# Conditions: read-out: Activity
row,SMILES,"viability at 48 h, 320 µM [%]"
1,COc1ccc([C@@H]2C(C#N)=C(N)OC(c3ccccn3)=C2[S@@+]([O-])c2ccc(C)cc2)cc1,70
